# Laboratory results published in patent US20090275538A1, “ARYLMETHYLIDENE HETEROCYCLES AS NOVEL ANALGESICS” (priority 2008, published 2009).
# Tested on: neuropathic rats (chronic constriction injury of the left sciatic nerve)
# Experiment: Analgesic effect in chronic constriction injury (Bennett) model of neuropathic pain, Von Frey 50% withdrawal threshold
# Assay type: in vivo, Sprague-Dawley rats
# Details: rats rendered neuropathic via the Bennett Model; intrathecal administration in Captisol; mean ± SEM; p<0.05 vs vehicle control
# Procedure: Determination of Analgesic Effect in an Experimental Model of Neuropathic Pain
# Adult, male Sprague-Dawley rats were obtained from Charles River Laboratories (Wilmington, Mass.) and housed under standard conditions at the Institut Armand-Frappier (Laval, QC). Food and water were provided to experimental animals ad libitum, and rats weighed 175-200 grams at the time of assessment.
# Compounds were prepared for intrathecal administration by dissolving them in a vehicle of Captisol® (CyDex, Lenexa, Kans.); total volume of solution administered to rats was 20 μL.
# Neuropathic pain was induced in rats via chronic constriction injury (CCl) of the left sciatic nerve in accordance with the procedure described by Bennett & Xie (Pain, 1988). Briefly, under ketamine/xylazine anaesthesia, the sciatic nerve was exposed by dissection at the level of mid-thigh, and four loose ligatures (USP 4/0, Braun Melsungen, FRG) were implanted around the nerve—with due attention not to interrupt the epineural circulation. The incision was closed-up using simple suturing, and the rats allowed to recover.
# After approximately two weeks, a stable allodynia to blunt mechanical stimuli was identified in the hind paw ipsilateral to the CCl, manifested as a reduction of 50% withdrawal threshold, and identified using the Von Frey technique, as described by Chaplan et al. (Journal of Neuroscience Methods, 1994). Rats were considered to be fully neuropathic upon displaying a 50% withdrawal threshold of <3.5 grams consistently over the course of 72 hours.
# Under brief isoflurane […], compounds were administered to neuropathic rats via acute local delivery in the intrathecal space surrounding the lumbar enlargement of the spinal cord.
row,Compound,Peak 50% Withdrawal Threshold
1,CCN(CC)C1CCN(C2=NC(=O)/C(=C\c3cc(F)ccc3OC(=O)N(C)C)S2)C1 (stereo not shown),11.84 ± 1.58 g
2,CN(C)[C@@H]1CCN(C2=NC/C(=C/c3cc(F)ccc3O)S2)C1.Cl,6.44 ± 1.33 g
3,CN(C)[C@H]1CCN(C2=NC(=O)/C(=C/c3cc(F)ccc3O)S2)C1.CS(=O)(=O)O,9.72 ± 2.04 g
4,CN(C)[C@@H]1CCN(C2=NC(=O)/C(=C/c3ccc(F)cc3O)S2)C1,5.6 ± 1.94 g
5,CN(C)[C@H]1CCN(C2=NC(=O)/C(=C/c3ccc(F)cc3O)S2)C1.CS(=O)(=O)O,7.3 ± 1.37 g
6,O=C1N=C(N2CCCCC2)S/C1=C\c1ccccc1O,6.74 ± 2.13 g
7,O=C1N=C(N2CCN(CCO)CC2)S/C1=C\c1ccc(F)cc1O,8.23 ± 2.40 g
8,CS(=O)(=O)O.O=C1N=C(N2CCN(CCO)CC2)S/C1=C\c1cc(F)ccc1O,6.40 ± 2.45 g
9,"Cl.O=C1N=C(N2CCCCN2)S/C1=C/c1cc(F)ccc1OC(=O)N1CCCC1 [2-{[(5E)-2-(1,2-diazinan-1-yl)-4-oxo-4,5-dihydro-1,3-thiazol-5-ylidene]methyl}-4-fluorophenylpyrrolidine-1-carboxylate hydrochloride]",8.18 ± 1.98 g
10,"CN(C)C(=O)Oc1cc(F)ccc1/C=C1/SC(N2CCCCN2)=NC1=O.Cl [2-{[(5E)-2-(1,2-diazinan-1-yl)-4-oxo-4,5-dihydro-1,3-thiazol-5-ylidene]methyl}-5-fluorophenyl N,N-dimethylcarbamate hydrochloride]",6.18 ± 1.77 g
11,"Cl.O=C1N=C(N2CCCCN2)S/C1=C/c1ccc(F)cc1OC(=O)N1CCCC1 [2-{[(5E)-2-(1,2-diazinan-1-yl)-4-oxo-4,5-dihydro-1,3-thiazol-5-ylidene]methyl}-5-fluorophenyl pyrrolidine-1-carboxylate hydrochloride]",7.42 ± 1.21 g
12,"O=C1N=C(N2CCCCN2)S/C1=C\c1ccc(F)cc1O [(5Z)-2-(1,2-diazinan-1-yl)-5-[(4-fluoro-2-hydroxyphenyl)methylidene]-4,5-dihydro-1,3-thiazol-4-one]",7.37 ± 2.02 g
13,"O=C1N=C(N2CCCCN2)S/C1=C\c1cc(F)ccc1O [(5Z)-2-(1,2-diazinan-1-yl)-5-[(5-fluoro-2-hydroxyphenyl)methylidene]-4,5-dihydro-1,3-thiazol-4-one]",9.03 ± 2.00 g
